Publication PMC5978685, “Design, Synthesis, and Evaluation of Novel Immunomodulatory Small Molecules Targeting the CD40–CD154 Costimulatory Protein-Protein Interaction” (Molecules : A Journal of Synthetic Chemistry and Natural …, 2018)
Read-outs that look alike come from different tables or passages of the source.

Tests used:
OX40–OX40L = biological target: T1, OX40–OX40L (Homo sapiens, UniProt P23510); assay: cell-free ELISA-type binding inhibition assay, OX40–OX40L
T1 construct: purchased Enzo Life Sciences
T1 sequence (P23510 51-183 limits assumed): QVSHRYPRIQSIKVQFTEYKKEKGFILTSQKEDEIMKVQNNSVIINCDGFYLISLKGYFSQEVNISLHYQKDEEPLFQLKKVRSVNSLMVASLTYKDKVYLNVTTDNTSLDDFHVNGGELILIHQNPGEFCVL
Procedure: (§1) In parallel with the CD40–CD154 assay, the ability of these compounds to inhibit other TNFSFR–TNFSF PPIs, including OX40–OX40L, BAFFR–BAFF, and TNF-R1–TNF-α, was also assessed (Figure 3B–D).
(§2) Binding inhibition assays were performed in a 96-well cell-free format as described before. Briefly, microtiter plates (Nunc F Maxisorp, 96-well; Thermo Fisher Scientific, Waltham, MA, USA) were coated overnight at 4 °C with 100 μL/well of Fc-conjugated receptors diluted in PBS pH 7.2. This was followed by blocking with 200 μL/well of blocking solution (PBS pH 7.2, 0.05% Tween-20, 1% BSA) for 1 h at RT. Then, plates were washed twice using washing solution (PBS pH 7.4, 0.05% Tween-20) and tapped dry before the addition of the appropriate FLAG tagged ligands along with different concentrations of tested dyes diluted in binding buffer (100 mM HEPES, 0.005% BSA pH 7.2) to give a total volume of 100 μL/well. After 1 h incubation, three washes were conducted, and anti-FLAG HRP conjugate was used to detect the bound FLAG-tagged ligand. Plates were washed four times before the addition of 120 μL/well of HRP substrate TMB (3,3′,5,5′-tetramethylbenzidine) and kept in the dark for up to 15 min. The reaction was stopped using 30 μL of 1M H2SO4, and the absorbance value was read at 450 nm. The concentrations of receptors used were 0.3 μg/mL for CD40, TNF-R1, and BAFFR; 0.6 μg/mL for OX40. The concentrations of the ligands were fixed at 0.02 μg/mL for CD154 and TNF-α, 0.06 μg/mL for OX40L, and 0.03 μg/mL for BAFF. These values were selected following preliminary testing to optimize response (i.e., to produce a high-enough signal at conditions close to half-maximal response, EC50). […] To verify that inhibition is not due to colloidal aggregation, CD40 binding inhibition was also measured in the presence of the non-ionic detergent Triton-X 100 (0.01%), as recommended for the detection of such effects.
(§3) All binding inhibition and cell assays were tested in duplicate or triplicate per plates, and assays were performed as at least three independent experiments. As before, binding and cytotoxicity data were converted to percent inhibition and fitted with standard log inhibitor vs. normalized response models using nonlinear regression in GraphPad Prism (GraphPad, La Jolla, CA, USA) to establish half-maximal (median) inhibitory concentration (IC50) or median lethal concentration (LC50) values. Cell assay data were fitted with a similar model that also allowed for a variable slope using the log inhibitor vs. normalized response (variable slope) model from Prism with a Hill slope (n) shared across all compounds. Cell assays and draining lymph node data were analyzed by one-way repeated-measures analysis of variance (ANOVA) followed by Dunnett’s multiple comparison test as a post hoc test for individual differences using GraphPad Prism and a significance level of p < 0.05 for all comparisons.
(§4) Data are (counterclockwise) for human CD40–CD154 (CD40L) (A); OX40–OX40L (B); BAFFR–BAFF (C); and TNF-R1–TNFα (D) and were fitted with standard binding curves. Data are average ± SD (normalized to percent binding) for n = 3 independent experiments with duplicates for each condition.

[1] = system: CD154-induced NF-κB activation in CD40 sensor cells; assay: CD40 sensor cell assay (HEK Blue CD40, SEAP reporter); format: cell-based, human; settings: for IC50: Homo sapiens, CD154 100 ng/mL, 24 h
Excerpt: As further confirmation of the inhibitory activity of our compounds, a cell-based assay was used with sensor cells (HEK Blue CD40) containing a secreted embryonic alkaline phosphatase (SEAP) reporter gene under the control of a promoter fused to a NF-κB binding site and transfected with CD40. […] For all tested compounds, the corresponding IC50 values are higher than those determined in the cell-free binding inhibition assay (Table 1) representing a loss of activity which is likely due to non-specific binding on account of the presence of proteins and cells in the assay, as well as hydrophobicity-related problems. Cytotoxicities were also evaluated in these same cells and at the same concentrations using a standard MTS assay to ensure that effects are present at non-toxic concentration levels.
CD40 expressing NF-κB sensor cells (HEK Blue, InvivoGen, San Diego, CA, USA) were used to assess the ability of the present compounds to block CD154-induced activation as described before. Briefly, cells were maintained in DMEM at 80% confluence for each experiment. Cells were trypsinized and re-suspended in the same medium without FBS and seeded on 96-well microtiter plates at a density of 50,000 cells/well in the absence and presence of various concentrations of compounds diluted in the same media. For ligand mediated stimulation, a concentration of recombinant human CD154 (100 ng/mL) found to induce an optimal response was maintained in the wells for this purpose. After 24 h of incubation at 37 °C, 40 μL supernatant of each well were taken and added to another 96-well microtiter plate containing 160 μL/well of QUANTI-Blue (InvivoGen). The level of SEAP was determined after 1 h of incubation at 37 °C by reading at 650 nm using a spectrophotometer. A monoclonal anti-human CD154 antibody (clone 40804, R&D Systems, Minneapolis, MN, USA) was used as a positive control at 240 nM concentration.
as §3
Figure 5 Inhibition of CD154-induced NF-κB activation in CD40 sensor cells by compounds 6, 14, 15, and 18 in a concentration-dependent manner. Tartrazine (TZ) and an anti-CD154 antibody (mAb; single dose, 240 nM) were included as negative and positive controls, respectively. Data are average ± SD (normalized to CD154-activated cells alone) for n = 2 independent experiments with duplicates for each condition.

TNF-R1–TNFα = biological target: T2, TNF-R1–TNFα (Homo sapiens, UniProt P01375); assay: cell-free ELISA-type binding inhibition assay, TNF-R1–TNFα
T2 construct: purchased Enzo Life Sciences
Procedure: as §1, §2, §3, §4

BAFFR–BAFF = biological target: T3, BAFFR–BAFF (Homo sapiens, UniProt Q9Y275); assay: cell-free ELISA-type binding inhibition assay, BAFFR–BAFF
T3 construct: purchased Enzo Life Sciences
Procedure: as §1, §2, §3, §4

[2] = cell-free TNF-R1–TNFα binding inhibition, read-out: TNF IC50

T3 sequence (Q9Y275 134-285 limits assumed): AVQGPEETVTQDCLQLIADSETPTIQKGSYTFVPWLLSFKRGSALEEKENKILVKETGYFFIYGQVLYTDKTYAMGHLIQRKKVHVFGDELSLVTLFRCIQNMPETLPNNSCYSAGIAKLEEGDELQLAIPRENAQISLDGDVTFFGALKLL
T2 sequence (P01375 85-233 limits assumed): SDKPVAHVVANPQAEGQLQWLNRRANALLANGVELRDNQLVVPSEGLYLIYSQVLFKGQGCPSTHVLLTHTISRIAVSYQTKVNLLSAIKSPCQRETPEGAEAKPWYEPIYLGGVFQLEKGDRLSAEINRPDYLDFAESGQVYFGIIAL

## O=C(Nc1ccc(-c2ccc(C(=O)Nc3cccc4cccc(S(=O)(=O)O)c34)cc2)cc1)c1ccc([N+](=O)[O-])cc1 [Compound 6, 8-(4′-(4-Nitrobenzamido)biphenyl-4-ylcarboxamido)naphthalene-1-sulfonic acid]
OX40–OX40L
  IC50: 318 µM
[1]
  inhibition of CD154-induced NF-κB activation (qualitative): concentration-dependent inhibition
  IC50: 19.9 µM
TNF-R1–TNFα; [2]
  IC50: > 1000 µM
BAFFR–BAFF
  IC50: 0.328 µM

## COC(=O)c1ccc(-c2ccc(C(=O)Nc3ccc(-c4ccc(C(=O)Nc5cccc6cccc(S(=O)(=O)O)c56)cc4)cc3)cc2)cc1 [Compound 15, 8-(4′-(4′-(Methoxycarbonyl)-[1,1′-biphenyl]-4-carboxamido)-[1,1′-biphenyl]-4-carboxamido)naphthalene-1-sulfonic acid]
OX40–OX40L
  IC50: 1.01 µM
[1]
  inhibition of CD154-induced NF-κB activation (qualitative): concentration-dependent inhibition
  IC50: 6 µM
TNF-R1–TNFα; [2]
  IC50: 26.5 µM
TNF-R1–TNFα; cell-free binding inhibition, read-out: TNF-R1–TNF IC50
  IC50: 26.5 µM
BAFFR–BAFF
  IC50: 1.52 µM

## O=C(Nc1ccc(-c2ccc(C(=O)Nc3cccc4cccc(S(=O)(=O)O)c34)cc2)nc1)c1ccc([N+](=O)[O-])cc1 [Compound 18, 8-(4-(5-(4-Nitrobenzamido)pyridin-2-yl)benzamido)naphthalene-1-sulfonic acid]
OX40–OX40L
  IC50: 5.48 µM
[1]
  inhibition of CD154-induced NF-κB activation (qualitative): concentration-dependent inhibition
  IC50: 8.7 µM
TNF-R1–TNFα; [2]
  IC50: 46.9 µM
BAFFR–BAFF
  IC50: 8.07 µM
